This is an account of results in ChEMBL document CHEMBL1139343, “Pharmacophore guided discovery of small-molecule human apurinic/apyrimidinic endonuclease 1 inhibitors” (J Med Chem, 2009).

What is called IC50 is the midpoint of a concentration-inhibition curve.

The experiment deals with DNA repair nuclease/redox regulator APEX1 (Homo sapiens, UniProt P27695). Briefly: Inhibition of purified human recombinant APE1 expressed in Escherichia coli M15 cells.
Sequence of DNA repair nuclease/redox regulator APEX1 (P27695 whole entry): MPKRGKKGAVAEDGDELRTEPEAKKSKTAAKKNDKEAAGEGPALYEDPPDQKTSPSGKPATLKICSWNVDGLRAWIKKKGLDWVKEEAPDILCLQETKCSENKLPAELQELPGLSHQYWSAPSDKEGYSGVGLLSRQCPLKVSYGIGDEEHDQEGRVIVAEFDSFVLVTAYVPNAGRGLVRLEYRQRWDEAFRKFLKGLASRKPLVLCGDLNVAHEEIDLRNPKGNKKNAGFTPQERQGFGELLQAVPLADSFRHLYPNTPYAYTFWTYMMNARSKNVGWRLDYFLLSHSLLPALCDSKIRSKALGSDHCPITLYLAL
Consider `CCc1nnc(NS(=O)(=O)c2ccc(NC(=O)CCC(=O)O)cc2)s1`, for which the half-inhibitory concentration (IC50) turned out to be 80 µM. In the case of `CCN(CC)S(=O)(=O)c1cccc(C(=O)Nc2ccccc2C(=O)O)c1` it was 100 µM; in that of `CCOc1cc(-n2cnnn2)c(OCC)cc1NC(=O)c1cc2cccc(OC)c2oc1=O`, above 100 µM. In the case of `Cc1cc(S(=O)(=O)N2CCc3ccccc32)ccc1OCC(=O)NCc1ccccn1` it was above 100 µM; in that of `O=S(=O)(O)CCCSc1sc2ccccc2[n+]1CCCS(=O)(=O)O`, above 100 µM. As for `O=C(O)CN1C(=O)/C(=C2\SC(=S)N(NC(=O)c3ccccc3O)C2=O)c2ccccc21`, the figure is 11 µM.

Regarding `CCS(=O)(=O)Nc1cc2c(cc1C)C(S(=O)(=O)CC)C1=C2CCC1` (configuration not stated), the IC50 is above 100 µM. As for `O=C(O)CCC1(CCC(=O)O)c2ccccc2-c2ccccc21`, the figure is 50 µM. As for `O=C(O)CCCNc1n[nH]c(=O)[nH]c1=O`, the figure is above 100 µM; as for `O=C(Nc1ccccc1O)c1cc(S(=O)(=O)N2CCCCCC2)ccc1Cl`, above 100 µM; as for `O=C(O)CNC1CS(=O)(=O)CC1O` (configuration not stated), above 100 µM. As for `CCN(Cc1ccccc1)S(=O)(=O)c1ccc(S(=O)(=O)NC2CCC(C)CC2)cc1` (configuration not stated), the figure is above 100 µM; as for `CC1(C)C(C(=O)O)N2C(=O)C(NC(=O)C(C(=O)O)c3ccccc3)C2[S+]1[O-]` (configuration not stated), above 100 µM. Take `O=C(O)CCC1(CCC(=O)O)CCCCC1=O`: the IC50 is above 100 µM. As for `O=S(=O)(O)c1cc(O)c2c(S(=O)(=O)O)cc(S(=O)(=O)O)cc2c1`, the figure is above 100 µM. In the case of `O=C(O)CSc1nnc(-c2ccc(S(=O)(=O)N3CCOCC3)cc2)n1Cc1ccco1` it was above 100 µM; in that of `O=C(O)CCn1c(=S)n(CCC(=O)O)c2ccccc21`, 15 µM. As for `CCn1c(SCCN2CCCC2)nnc1C1CCCN(S(C)(=O)=O)C1` (configuration not stated), the figure is above 100 µM.

As for `Cc1ccc(Cn2nnc3c(O)nc(C4CCCN(S(=O)(=O)c5ccccc5)C4)nc32)cc1` (configuration not stated), the IC50 is above 100 µM. As for `CS(=O)(=O)Nc1nc(CC(=O)O)cs1`, the figure is above 100 µM; as for `COc1ccc(/C=C/C(=O)O)cc1S(=O)(=O)NC1CCS(=O)(=O)C1` (configuration not stated), above 100 µM; as for `O=C(O)CSc1cc(-c2ccccc2)nc(SCC(=O)O)n1`, 19 µM. In the case of `O=C(O)c1oc2ccccc2c1CSc1ccccn1` it was 27 µM; in that of `CCS(=O)(=O)Nc1cc2c(C(C)=O)c(C)n(S(=O)(=O)CC)c2cc1C`, above 100 µM; in that of `O=C(O)Cn1c(=O)n(CC(=O)O)c2ccccc21`, 16 µM.

As for `Cc1nc(N(CCC(=O)O)CCC(=O)O)sc1C(C)(C)C`, the half-maximal inhibitory concentration (IC50) turned out to be 60 µM. In the case of `O=C(O)CSC1CCS(=O)(=O)C1` (configuration not stated) it was above 100 µM; in that of `COc1ccccc1C(=O)NCC(C)(C)CNC1=NS(=O)(=O)c2ccccc21`, above 100 µM; in that of `Nc1ccc(-c2ccc(N)c(S(=O)(=O)O)c2)cc1S(=O)(=O)O`, above 100 µM. As for `O=C(O)c1ccc(NS(=O)(=O)c2cccs2)cc1`, the figure is above 100 µM; as for `O=C(O)CNS(=O)(=O)c1ccc2c(c1)C(=O)c1cc(S(=O)(=O)NCC(=O)O)ccc1-2`, 50 µM.

As for `O=C(O)c1cccc(NC(=O)C2CCCCC2C(=O)O)c1` (configuration not stated), the IC50 was determined as 55 µM.

For the compound `CCS(=O)(=O)N1CCCC(c2nc(O)c3nnn(Cc4ccccc4)c3n2)C1` (configuration not stated), the IC50 is above 100 µM. In the case of `O=[N+]([O-])c1ccccc1-c1nnc(CSc2nnc(-c3ccccc3O)o2)o1` it was above 100 µM; in that of `O=C(Nc1ccccc1O)c1cccc(S(=O)(=O)N2CCCC2)c1`, above 100 µM. In the case of `Cc1ccc(S(=O)(=O)CCc2nnc(NC(=O)CCc3ccccc3)s2)cc1` it was above 100 µM. For `O=C(O)CCC(=O)NC(Cc1ccccc1)C(=O)O` (configuration not stated), the half-inhibitory concentration (IC50) came out at 40 µM. In the case of `O=C(O)CCS(=O)(=O)CCC(=O)O` it was 40 µM; in that of `CCOc1cc(S(=O)(=O)NCc2ccc3c(c2)OCO3)c(OCC)cc1-n1cnnn1`, above 100 µM; in that of `Cn1c(CCNS(=O)(=O)c2ccccc2)nnc1SCc1cccnc1`, above 100 µM. As for `C=CCSc1nnc(-c2ccc(NS(C)(=O)=O)cc2)n1C`, the figure is above 100 µM; as for `O=C(O)CC(CC(=O)Nc1nnn[nH]1)c1ccccc1` (configuration not stated), 30 µM. As for `O=C(O)CN1C(=O)/C(=C2/C(=O)N(CC(=O)O)c3ccccc32)SC1=S`, the figure is 13 µM; as for `Cc1cc(S(=O)(=O)N2CCOCC2)ccc1OCC(=O)O`, 100 µM; as for `CC(C)c1nnc(NC(=O)C2CCCN2S(=O)(=O)c2ccc(F)cc2)s1` (configuration not stated), above 100 µM. `O=C(O)CCn1c(=O)[nH]c(=O)n(CCC(=O)O)c1=O`: the IC50 worked out at 33 µM.

With `O=C(CCc1nc(-c2ccc(Cl)cc2)no1)Nc1nnn[nH]1`, the IC50 was above 100 µM.

On to `Cc1nc(NC(=O)c2ccco2)sc1C(=O)O`, for which the IC50 is above 100 µM.

Take `Cc1ccc(-c2noc(CNC(=O)CN(C)S(=O)(=O)c3ccc4ccccc4c3)n2)cc1`: the IC50 is above 100 µM. As for `CCS(=O)(=O)N1CCN(S(=O)(=O)c2ccc(C(=O)O)cc2)CC1`, the figure is above 100 µM. As for `Cc1cc(C(=O)O)c(CSCc2cc(C(=O)O)c(C)o2)o1`, the figure is above 100 µM; as for `NC(=O)CSc1nc2ccc(NC(=O)c3ccccc3C(=O)O)cc2s1`, 27 µM; as for `O=C(O)c1ccccc1C(=O)NCc1ccc(CNC(=O)c2ccccc2C(=O)O)cc1`, 30 µM. In the case of `C(=C\CSc1nnnn1-c1ccccc1)/CSc1nnnn1-c1ccccc1` it was above 100 µM; in that of `CCc1cc2c(=O)c(-c3nc4ccccc4s3)c(C)oc2cc1OS(C)(=O)=O`, above 100 µM; in that of `Cc1oc(C(=O)O)cc1CSCC(C)C(=O)O` (configuration not stated), 22 µM. For the compound `COC(=O)CSc1nnc(-c2ccc(NS(C)(=O)=O)cc2)n1C`, the concentration for half-maximal inhibition (IC50) was above 100 µM. As for `O=S(=O)(NCc1ccccc1)c1ccc(S(=O)(=O)N(Cc2ccc(Cl)cc2)Cc2ccco2)cc1`, the figure is above 100 µM. Take `C=CCn1c(Cc2ccccc2)nnc1SCC(=O)Nc1nnc(C)s1`: the IC50 was above 100 µM. In the case of `O=S(=O)(c1ccc(F)cc1)N1CCCC(c2nc(O)c3nnn(Cc4ccc(F)cc4)c3n2)C1` (configuration not stated) it was above 100 µM. In the case of `Nc1ncnc2[nH]c(SCCC(=O)O)nc12` it was 20 µM; in that of `O=C(O)CC1S/C(=N/N=C/c2ccco2)NC1=O` (configuration not stated), above 100 µM.

On to `CCOC(=O)c1cnc(SC(C)C(=O)O)nc1N` (configuration not stated), for which the IC50 was above 100 µM. As for `CCN(c1ccc(C(O)(C(=O)OC)C(F)(F)F)cc1)S(=O)(=O)c1ccc(C)cc1` (configuration not stated), the figure is above 100 µM; as for `COc1ccc(NS(=O)(=O)c2ccc(NC(=O)c3ccccc3C(=O)O)cc2)nn1`, above 100 µM. On to `COC(=O)COc1ccc(S(=O)(=O)N2CCCCC2)cc1C`, for which the IC50 is above 100 µM.

As to `CC(C)(C)NS(=O)(=O)c1ccc2oc3ccc(S(=O)(=O)NC(C)(C)C)cc3c2c1`, the IC50 is above 100 µM. As for `CCNC(=O)c1cc(S(=O)(=O)NCc2ccc(C(=O)O)cc2)c(C)s1`, the figure is above 100 µM. As for `CS(=O)(=O)NCc1nnc(SCC(=O)N2CCCCCC2)n1-c1ccc(F)cc1`, the figure is above 100 µM. In the case of `CN(c1ccc(C(=O)O)cc1)S(=O)(=O)c1cccs1` it was above 100 µM; in that of `COc1ccc(S(=O)(=O)N2CCC(C(=O)O)CC2)cc1C(=O)O`, 30 µM. For `O=C(c1ccc2c(c1)C(=O)N(c1ccccc1C(=O)O)C2=O)c1ccc2c(c1)C(=O)N(c1ccccc1C(=O)O)C2=O`, the IC50 is 8 µM.
